The target in one assay is JAK2 (Homo sapiens, UniProt O60674). The assay is described as follows: In vitro JAK2 kinase assay (HTRF). It is filed as biochemical. The conditions noted are these: mean ± S.D. Here is the method: (§1) The inhibition of the FLT3 kinase activity was measured with homogeneous, time-resolved fluorescence (HTRF) assays. Recombinant proteins containing the FLT3 kinase domain were purchased from Carna biosciences (Japan). Optimal enzyme, ATP, and substrate concentrations were established with the HTRF KinEASE kit (Cisbio, France) according to the manufacturer’s instructions. The FLT3 enzymes were mixed with serially diluted compounds and peptide substrates in a kinase reaction buffer (50 mM HEPES (pH 7.0), 500 μM ATP, 0.1 mM sodium orthovanadate, 5 mM MgCl2, 1 mM DTT, 0.01% bovine serum albumin (BSA), and 0.02% NaN3). After the addition of the reagents for detection, the TR-FRET signal was measured with a Victor multilabel reader (Perkin Elmer, Waltham, MA, USA). The IC50 was calculated with nonlinear regression using Prism version 5.01 (GraphPad). JAK2, JAK3, cMET, and RET in vitro kinase assays were also carried out using the HTRF assay kit.
JAK2, sequence (O60674 whole entry, species assumed, the tested form may be a part): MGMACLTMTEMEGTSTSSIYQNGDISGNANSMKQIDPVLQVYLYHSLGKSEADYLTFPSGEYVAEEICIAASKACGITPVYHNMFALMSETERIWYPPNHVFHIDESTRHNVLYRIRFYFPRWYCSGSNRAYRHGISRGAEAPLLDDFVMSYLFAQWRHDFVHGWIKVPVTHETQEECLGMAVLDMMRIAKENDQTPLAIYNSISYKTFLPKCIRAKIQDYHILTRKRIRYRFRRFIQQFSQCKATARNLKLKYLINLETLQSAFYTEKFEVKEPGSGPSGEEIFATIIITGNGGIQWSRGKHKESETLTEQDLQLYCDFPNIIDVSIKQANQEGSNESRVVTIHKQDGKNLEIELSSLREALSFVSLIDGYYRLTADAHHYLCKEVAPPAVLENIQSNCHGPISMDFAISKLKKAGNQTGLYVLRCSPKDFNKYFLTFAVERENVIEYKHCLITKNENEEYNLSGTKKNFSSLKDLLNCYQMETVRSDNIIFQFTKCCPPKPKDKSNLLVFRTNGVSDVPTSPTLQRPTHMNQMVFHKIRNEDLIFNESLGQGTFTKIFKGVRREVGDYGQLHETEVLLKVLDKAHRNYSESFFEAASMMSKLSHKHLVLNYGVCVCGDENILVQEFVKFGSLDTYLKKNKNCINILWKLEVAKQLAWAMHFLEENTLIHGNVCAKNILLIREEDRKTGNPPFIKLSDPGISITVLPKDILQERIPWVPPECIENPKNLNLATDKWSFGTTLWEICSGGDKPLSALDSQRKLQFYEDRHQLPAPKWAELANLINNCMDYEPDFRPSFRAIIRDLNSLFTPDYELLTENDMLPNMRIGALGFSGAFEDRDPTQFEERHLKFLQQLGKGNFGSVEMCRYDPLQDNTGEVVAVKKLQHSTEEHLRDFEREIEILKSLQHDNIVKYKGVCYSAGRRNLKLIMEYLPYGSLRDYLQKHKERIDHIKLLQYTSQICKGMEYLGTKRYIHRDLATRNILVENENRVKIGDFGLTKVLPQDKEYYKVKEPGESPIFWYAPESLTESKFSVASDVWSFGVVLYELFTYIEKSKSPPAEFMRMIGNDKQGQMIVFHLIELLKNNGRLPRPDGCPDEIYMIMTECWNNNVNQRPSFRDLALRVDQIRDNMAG
In general terms: In TR-FRET formats the signal depends on donor and acceptor labels being close together.

The target of the next assay is T1, JAK3 (Homo sapiens, UniProt P52333).
T1 sequence (P52333 1-1124): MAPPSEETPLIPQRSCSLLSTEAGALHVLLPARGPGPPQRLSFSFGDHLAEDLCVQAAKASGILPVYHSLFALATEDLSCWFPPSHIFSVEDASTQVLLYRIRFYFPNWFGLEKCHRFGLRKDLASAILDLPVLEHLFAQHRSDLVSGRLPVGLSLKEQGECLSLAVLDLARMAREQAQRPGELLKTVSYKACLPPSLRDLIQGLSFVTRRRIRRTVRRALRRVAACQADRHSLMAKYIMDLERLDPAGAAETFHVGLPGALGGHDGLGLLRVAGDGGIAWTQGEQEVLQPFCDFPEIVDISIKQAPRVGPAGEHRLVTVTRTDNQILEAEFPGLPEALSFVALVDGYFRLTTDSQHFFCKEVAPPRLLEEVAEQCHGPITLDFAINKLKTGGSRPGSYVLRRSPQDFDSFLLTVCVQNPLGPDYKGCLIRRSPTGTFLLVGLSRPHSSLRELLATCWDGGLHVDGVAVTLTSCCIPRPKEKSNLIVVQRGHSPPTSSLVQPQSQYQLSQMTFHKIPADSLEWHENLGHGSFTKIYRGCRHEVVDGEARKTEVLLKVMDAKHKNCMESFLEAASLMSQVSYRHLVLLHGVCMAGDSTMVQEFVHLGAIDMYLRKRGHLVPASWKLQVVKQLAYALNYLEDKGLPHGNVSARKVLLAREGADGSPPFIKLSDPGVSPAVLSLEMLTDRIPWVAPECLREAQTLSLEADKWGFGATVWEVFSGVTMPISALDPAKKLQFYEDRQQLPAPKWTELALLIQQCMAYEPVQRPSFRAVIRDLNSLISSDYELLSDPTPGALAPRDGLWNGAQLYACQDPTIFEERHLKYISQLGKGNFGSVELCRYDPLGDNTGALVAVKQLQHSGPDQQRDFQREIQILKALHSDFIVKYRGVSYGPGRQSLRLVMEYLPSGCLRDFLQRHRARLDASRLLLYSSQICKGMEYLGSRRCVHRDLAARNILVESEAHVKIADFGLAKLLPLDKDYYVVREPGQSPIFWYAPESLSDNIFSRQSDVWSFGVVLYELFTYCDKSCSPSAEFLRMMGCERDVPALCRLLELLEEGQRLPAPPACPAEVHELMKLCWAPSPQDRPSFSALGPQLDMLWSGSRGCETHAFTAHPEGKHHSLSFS
The assay is described as follows: In vitro JAK3 kinase assay (HTRF). The class given is biochemical. To be noted: mean ± S.D. Here is the method:
as §1

The next assay has as its target T2, IRAK4 (Homo sapiens, UniProt Q9NWZ3).
T2 sequence (Q9NWZ3 1-460): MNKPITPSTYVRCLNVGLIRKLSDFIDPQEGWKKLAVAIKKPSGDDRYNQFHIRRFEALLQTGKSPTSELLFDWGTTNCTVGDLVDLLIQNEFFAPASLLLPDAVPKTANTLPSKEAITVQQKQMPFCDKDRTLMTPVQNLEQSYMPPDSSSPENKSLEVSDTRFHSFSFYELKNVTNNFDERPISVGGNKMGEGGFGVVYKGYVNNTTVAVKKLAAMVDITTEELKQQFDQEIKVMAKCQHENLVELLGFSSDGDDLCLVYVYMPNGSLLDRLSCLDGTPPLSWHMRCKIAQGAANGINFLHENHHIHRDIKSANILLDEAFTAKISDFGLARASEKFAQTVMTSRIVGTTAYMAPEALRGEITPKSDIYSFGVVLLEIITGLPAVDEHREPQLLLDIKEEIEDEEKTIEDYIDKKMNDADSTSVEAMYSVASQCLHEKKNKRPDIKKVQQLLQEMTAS
The assay is described as follows: In vitro IRAK4 kinase assay (LANCE Ultra). It is filed as biochemical. How it is done: The in vitro kinase assay for IRAK4 was done with the LANCE Ultra Kinase Activity Assay (Perkin Elmer) containing the ULight-p70S6K (Thr389) peptide (phosphorylation motif […]). The assays consisted of the enzyme mixed with serially diluted compounds, 50 nM ULight-p70S6K (Thr389) peptide, and 500 μM ATP prediluted in kinase buffer (50 mM HEPES (pH 7.5), 10 mM MgCl2, 1 mM EGTA, 2 mM DTT, and 0.01% Tween20). Ten microliters of the total volume of the kinase reaction were added to the wells of a 96-well assay plate. The kinase reactions were incubated for 90 min. at 25°C and stopped by the addition of 10 mM EDTA. For the detection of the phospho-substrate, the Eu-anti-phospho-p70S6K (Thr389) antibody diluted in detection buffer was added to a final concentration of 2 nM, and the reactions were then incubated for 1 h at 25°C. The signal was measured on an EnVision multi-label reader.

Another assay deals with cellular senescence. The assay is described as follows: Senescence-associated β-galactosidase assay (SA-β-gal). It is filed as cell-based. To be noted: data not shown.

Broadly, the IC50 is the concentration that inhibits the measured activity by half. Higher therefore signals a need for much substance.

In the case of `COC(=O)c1ccc2c(c1)/C(=C1/Nc3ccccc3/C1=N\OCCN1CCNCC1)C(=O)N2.Cl.Cl` [LDD1937, methyl (2Z,3E)-2′-oxo-3-((2-(piperazin-1-yl)ethoxy)imino)-[2,3′-biindolinylidene]-5′-carboxylate dihydrochloride], the IC50 turned out to be 523 ± 72.7 nM against JAK2, 690 ± 59.9 nM at JAK3 and 300 nM on IRAK4. Besides, the “SA-β-gal (cellular senescence)” value in the assay on cellular senescence was “did not change”.
